As a reminder, the melting point is the temperature of the solid-liquid transition.

Non-standard residues stand in square brackets, D forms with d. Residues, ends and D or L forms follow the SMILES beside them. ξ: configuration not given here. *: point of attachment. Isovaleryl = CC(C)CC(=O)*; ξChg = NC(C(=O)O)C1CCCCC1

Consider `CCOC(=O)[C@H](Cc1ccc(O)cc1)NC(=O)[C@H](C)NC(=O)Cc1cccc([N+](=O)[O-])c1` [Example 81, N-[N-(3-Nitrophenylacetyl)-L-alaninyl]-L-tyrosine Ethyl Ester], for which the melting point lay within 117 to 119 °C. Compound `CC[C@H](C)[C@H](NC(=O)CC(C)C)C(=O)N[C@@H](C)C(=O)OCC(C)C` [Example 82, N-[N-(Isovaleryl)-L-isoleucinyl]-L-alanine iso-butyl Ester] showed a melting point of 142 to 146 °C. In the case of `CC(C)COC(=O)[C@H](C)NC(=O)[C@@H](NC(=O)[C@@H](NC(=O)CC(C)C)C(C)C)c1ccccc1` [Example 83, N-[N-[N-(Isovaleryl)-L-valinyl]-L-phenylglycinyl]-L-alanine iso-butyl Ester] it was 217 to 221 °C.

Compound `CC(C)COC(=O)[C@H](C)NC(=O)[C@H](Cc1ccccc1)NC(=O)CC(C)C` [Example 84, N-[N-(Isovaleryl)-L-phenylalaninyl]-L-alanine iso-butyl Ester] showed a melting point of 135 to 138 °C. Turning to `CCOC(=O)[C@H](C)NC(=O)[C@H](C)NC(=O)Cc1cc(F)cc(F)c1` [Example 85, N-[N-(3,5-Difluorophenylacetyl)-L-alaninyl]-L-alanine Ethyl Ester], the melting point lay in the range of 197 to 199 °C. Compound `COC(=O)[C@H](Cc1c[nH]c2ccccc12)NC(=O)[C@H](C)NC(=O)Cc1cc(F)cc(F)c1` [Example 106, N-[N-(3,5-Difluorophenylacetyl)-L-alaninyl]-L-tryptophan Methyl Ester] had a melting point of 191 to 193 °C.

In turn, `CCOC(=O)[C@H](C)NC(=O)[C@@H](NC(=O)Cc1ccccc1)c1ccccc1` [Example 108, N-[N-(Phenylacetyl)-L-phenylglycinyl]-L-alanine Ethyl Ester] (HELM PEPTIDE1{[O=C(Cc1ccccc1)[*:2]].[Phg].A.[CCO[*:1]]}$$$$V2.0) yielded a melting point of 208 to 210 °C.

For the compound `COC(=O)[C@@H](NC(=O)[C@H](Cc1ccccc1)NC(=O)[C@H](C)NC(=O)Cc1cc(F)cc(F)c1)c1ccccc1` [Example 109, N-[N-[N-(3,5-Difluorophenylacetyl)-L-alaninyl]-L-phenylalaninyl]-L-phenylglycine Methyl Ester], the melting point lay within 203 to 207 °C. Take `CCOC(=O)[C@H](C)NC(=O)[C@@H](NC(=O)CC1CCCCC1)c1ccccc1` [Example 110, N-[N-(Cyclohexylacetyl)L-phenylglycinyl]-L-alanine Ethyl Ester]: the melting point was 196 to 198 °C. As to `COC(=O)[C@@H](NC(=O)[C@H](C)NC(=O)Cc1cc(F)cc(F)c1)c1ccccc1` [Example 111, N-[N-(3,5-Difluorophenylacetyl)-L-alaninyl]-L-phenylglycine Methyl Ester], the melting point is 198 to 200 °C. In the case of `COC(=O)[C@@H](NC(=O)[C@H](C)NC(=O)[C@H](C)NC(=O)Cc1cc(F)cc(F)c1)c1ccccc1` [Example 112, N-[N-[N-(3,5-Difluorophenylacetyl)-L-alaninyl]-L-alaninyl]-L-phenylglycine Methyl Ester] it was 243 to 245 °C. `CCOC(=O)[C@H](CO)NC(=O)[C@H](C)NC(=O)Cc1cccc([N+](=O)[O-])c1` [Example 117, N-[N-(3-Nitrophenylacetyl)-L-alaninyl]-L-serine Ethyl Ester] yielded a melting point of 179 to 181 °C. In the case of `CCOC(=O)C(C)(NC(=O)[C@H](C)NC(=O)Cc1cc(F)cc(F)c1)c1ccccc1` (stereo partly drawn) [Example 123, Ethyl N-[N-(3,5-Difluorophenylacetyl)-L-alaninyl]-2-amino-2-phenylpropionate] it was 128 to 130 °C; in that of `CCOC(=O)C(NC(=O)[C@H](C)NC(=O)Cc1cc(F)cc(F)c1)C1CCCCC1` (stereo partly drawn) [Example 126, Ethyl N-[N-(3,5-Difluorophenylacetyl)-L-alaninyl]-2-amino-2-cyclohexylacetate], 146 to 150 °C. `CCOC(=O)[C@H](C)NC(=O)C(NC(=O)CC(C)C)C1CCCCC1` (stereo partly drawn) [Example 128, N-[N-(Isovaleryl)-2-amino-2-cyclohexylacetyl]-L-alanine Ethyl Ester] (Isovaleryl-[ξChg]-Ala-OEt): the melting point was in the range of 220 to 224 °C.

As for `COC(=O)[C@H](Cc1ccccc1)NC(=O)[C@H](C)NC(=O)Cc1cccnc1` [Example 131, N-[N-(3-Pyridylacetyl)-L-alaninyl]-L-phenylalanine Methyl Ester], the melting point was 150 to 152 °C. `COC(=O)[C@H](Cc1ccccc1)NC(=O)[C@H](C)NC(=O)Cc1ccccn1` [Example 132, N-[N-(2-Pyridylacetyl)-L-alaninyl]-L-phenylalanine Methyl Ester] gave a melting point of 137 to 139 °C. In the case of `COC(=O)[C@H](Cc1ccccc1)NC(=O)[C@H](C)NC(=O)Cc1ccncc1` [Example 133, N-[N-(4-Pyridylacetyl)-L-alaninyl]-L-phenylalanine Methyl Ester] it was 152 to 154 °C.

Compound `CCOC(=O)C(NC(=O)[C@H](C)NC(=O)Cc1cc(F)cc(F)c1)c1ccccc1F` (stereo partly drawn) [Example 135, Ethyl N-[N-(3,5-Difluorophenylacetyl)-L-alaninyl]-2-amino-2-(2-fluorophenyl)acetate] had a melting point of 153 to 170 °C. For the compound `C[C@H](NC(=O)Cc1cc(F)cc(F)c1)C(=O)N[C@H](C(=O)OCC(C)(C)C)c1ccccc1` [Example 138, N-[N-(3,5-Difluorophenylacetyl)-L-alaninyl]-L-phenylglycine Neopentyl Ester], the melting point was in the range of 133 to 136 °C. As to `CC[C@H](NC(=O)[C@H](C)NC(=O)Cc1cc(F)cc(F)c1)C(=O)OC` [Example 160, Methyl N-[N-(3,5-difluorophenylacetyl)-L-alaninyl]-(S)-2-aminobutanoate], the melting point is 103 to 106 °C. The compound `COC(=O)C(NC(=O)[C@H](C)NC(=O)Cc1cc(F)cc(F)c1)c1cc2cc(Cl)ccc2s1` (stereo partly drawn) [Example 173, Methyl N-[N-(3,5-Difluorophenylacetyl)-L-alaninyl]-2-amino-2-(5-chlorobenzothiophen-2-yl)acetate] returned a melting point of 189 to 190 °C. Compound `CCOC(=O)C(NC(=O)[C@H](C)NC(=O)Cc1cc(F)cc(F)c1)c1cc2ccccc2s1` (stereo partly drawn) [Example 174, Ethyl N-[N-(3,5-Difluorophenylacetyl)-L-alaninyl]-2-amino-2-(benzothiophen-2-yl)acetate] yielded a melting point of 189 to 190 °C. Compound `COC(=O)C(NC(=O)[C@H](C)NC(=O)Cc1cc(F)cc(F)c1)c1csc2ccccc12` (stereo partly drawn) [Example 175, Methyl N-[N-(3,5-Difluorophenylacetyl)-L-alaninyl]-2-amino-2-(benzothiophen-3-yl)acetate] came in with a melting point of 185 to 186 °C.

Regarding `COC(=O)C(NC(=O)[C@H](C)NC(=O)Cc1cc(F)cc(F)c1)c1cccs1` (stereo partly drawn) [Example 176, Methyl N-[N-(3,5-Difluorophenylacetyl)-L-alaninyl]-2-amino-2-(2-thienyl)acetate], the melting point fell in the range of 161 to 162 °C.

In the case of `CCOC(=O)C(NC(=O)[C@H](C)NC(=O)Cc1cc(F)cc(F)c1)c1ccc2sccc2c1` (stereo partly drawn) [Example 177, Ethyl N-[N-(3,5-Difluorophenylacetyl)-L-alaninyl]-2-amino-2-(benzothiophen-5-yl)acetate], the melting point lay in the range of 126.5 to 127.5 °C. Compound `COC(=O)[C@H](NC(=O)[C@H](C)NC(=O)Cc1cc(F)cc(F)c1)c1cccs1` [Example 178, Methyl N-[N-(3,5-Difluorophenylacetyl)-L-alaninyl]-(S)-2-amino-2-(2-thienyl)acetate] registered a melting point of 180 to 181 °C. Next, `C[C@H](NC(=O)Cc1cc(F)cc(F)c1)C(=O)N[C@@H](C(=O)OC(C)(C)C)c1cccs1` [Example 179, tert-Butyl N-[N-(3,5-Difluorophenylacetyl)-L-alaninyl]-(S)-2-amino-2-(2-thienyl)acetate]: 117 to 118 °C; `COC(=O)[C@@H](NC(=O)[C@H](C)NC(=O)Cc1cc(F)cc(F)c1)c1ccc2cc(OC)ccc2c1` [Example 182, Methyl N-[N-(3,5-Difluorophenylacetyl)-L-alaninyl]-(S)-2-amino-2-(6-methoxy-2-naphthyl)acetate]: 177 to 178 °C. For `COC(=O)C(NC(=O)[C@H](C)NC(=O)Cc1cc(F)cc(F)c1)c1cccc(C(F)(F)F)c1` (stereo partly drawn) [Example 183, Methyl N-[N-(3,5-Difluorophenylacetyl)-L-alaninyl]-2-amino-2-(3-trifluoromethylphenyl)acetate], the melting point was in the range of 133 to 134 °C. Next, `C[C@H](NC(=O)CC1CC1)C(=O)N[C@H](C(=O)OC(C)(C)C)c1ccccc1` [Example 189, N-[N-(Cyclopropylacetyl)-L-alaninyl]-L-phenylglycine tert-Butyl Ester]: 105 to 107 °C; `CC[C@H](NC(=O)Cc1cc(F)cc(F)c1)C(=O)N[C@H](C(=O)OC(C)(C)C)c1ccccc1` [Example 191, N-[N-(3,5-Difluorophenylacetyl)-(S)-2-aminobutanoyl]-L-phenylglycine tert-Butyl Ester]: 138.7 to 140 °C; `CC(C)[C@H](NC(=O)Cc1cc(F)cc(F)c1)C(=O)N[C@H](C(=O)OC(C)(C)C)c1ccccc1` [Example 192, N-[N-(3,5-Difluorophenylacetyl)-L-valinyl]-L-phenylglycine tert-Butyl Ester]: 170.5 to 171.8 °C. For the compound `COC(=O)[C@@H](NC(=O)[C@H](CCSC)NC(=O)Cc1cc(F)cc(F)c1)c1ccccc1` [Example 193, N-[N-(3,5-Difluorophenylacetyl)-L-methioninyl]-L-phenylglycine Methyl Ester], the melting point turned out to be 189.3 °C. `COC(=O)[C@@H](NC(=O)[C@@H](NC(=O)Cc1cc(F)cc(F)c1)C(C)C)c1ccccc1` [Example 194, N-[N-(3,5-Difluorophenylacetyl)-L-valinyl]-L-phenylglycine Methyl Ester] gave a melting point of 226.5 °C. In turn, `COC(=O)[C@@H](NC(=O)[C@H](CC(C)C)NC(=O)Cc1cc(F)cc(F)c1)c1ccccc1` [Example 196, N-[N-(3,5-Difluorophenylacetyl)-L-leucinyl]-L-phenylglycine Methyl Ester] yielded a melting point of 178.4 °C.

These data come from US6476263B1, “Compounds for inhibiting β-amyloid peptide release and/or its synthesis” (Elan Pharmaceuticals, Inc., priority 1996, dated 2002).
